Molecular target: T1, recombinant human secreted phospholipase A2 (Homo sapiens, UniProt P14555)
T1 sequence (P14555 21-144): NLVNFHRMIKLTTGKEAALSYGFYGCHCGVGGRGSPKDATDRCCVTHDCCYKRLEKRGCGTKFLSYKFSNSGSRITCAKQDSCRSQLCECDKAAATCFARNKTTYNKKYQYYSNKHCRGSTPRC
Experiment: chromogenic assay for inhibitors of recombinant human secreted phospholipase A2
Format: biochemical
Conditions: diheptanoyl thio-PC substrate, pH 7.5, 40° C. for 30 minutes, absorbance at 405 nanometers, titrated in triplicate
Excerpt: The following chromogenic assay procedure was used to identify and evaluate inhibitors of recombinant human secreted phospholipase A2. The assay described herein has been adapted for high volume screening using 96 well microtiter plates. A general description of this assay method is found in the article, “Analysis of Human Synovial Fluid Phospholipase A2 on Short Chain Phosphatidylcholine-Mixed Micelles: Development of a Spectrophotometric Assay Suitable for a Microtiterplate Reader”, by Laure J. Reynolds, Lori L. Hughes, and Edward A Dennis, Analytical Biochemistry, 204, pp. 190-197, 1992 (the disclosure of which is incorporated herein by reference):
A measured volume of racemic dipheptanoyl thio PC supplied in chloroform at a concentration of 100 mg/ml is taken to dryness and redissolved in 10 millimolar TRITON X-100™ nonionic detergent aqueous solution. Reaction Buffer is added to the solution, then DTNB to give the Reaction Mixture.
The reaction mixture thus obtained contains 1 mM diheptanoly thio-PC substrate, 0.29 mm Triton X-100™ detergent, and 0.12 mm DTMB in a buffered aqueous solution at pH 7.5.
• 1. Add 0.2 ml reaction mixture to all wells; • 2. Add 10 ul test compound (or solvent blank) to appropriate wells, mix 20 seconds; • 3. Add 50 nanograms of sPLA2 (10 microliters) to appropriate wells; • 4. Incubate plate at 40° C. for 30 minutes; • 5. Read absorbance of wells at 405 nanometers with an automatic plate reader.
Tests were done in triplicate. Typically, compounds were tested at a final concentration of 5 ug/ml. […] Lack of color development at 405 nanometers evidenced inhibition. Compounds initially found to be active were re-assayed to confirm their activity and, if sufficiently active, IC50 values were determined. […] In all cases, % inhibition measured at 405 nanometers generated by enzyme reactions containing inhibitors relative to the uninhibited control reactions was determined. […] IC50 values were determined by plotting log concentration versus inhibition values in the range from 10-90% inhibition.

Row | IC50 | Structure (SMILES)
1 | 0.015 µM | NC(=O)c1cccc2c1c1c(OCC(=O)O)cc3c(c1n2Cc1ccccc1)CCCC3 [Example 1, (11-Benzyl-7-carbamoyl-2,3,4,11-tetraydro-1H-benzo[a]carbazol-6-yloxy)acetic Acid]
2 | 0.012 µM | NC(=O)c1cccc2c1c1c(OCC(=O)O)cc3c(c1n2Cc1ccccc1)CCC3 [Example 2, (10-Benzyl-6-carbamoyl-1,2,3,10-tetraydrocyclopenta[a]carbazol-5-yloxy)acetic Acid]
3 | 0.0094 µM | COC(=O)COc1cc2ccccc2c2c1c1c(C(N)=O)cccc1n2Cc1ccccc1 [Example 3, (11-Benzyl-7-carbamoyl-11H-benzo [a]carbazol-6-yloxy)acetic acid methyl ester]

From patent US6872743B2, “sPLA2 inhibitors” (Eli Lilly and Company, priority 2000, dated 2005)
